This note sets out measurements from patent US8633204B2 (Pfizer Inc., priority 2006, dated 2014).

The subject of this test is PI3-K in BT20 cells (phosphorylation of AKT at serine 473). The test is described as follows: PI3-Kα Cellular Assay (AKT Ser473 phosphorylation ELISA in BT20 cells). Type of test: cell-based, human. The note with it: Homo sapiens, BT-20, pAKT Ser473 ELISA, 1 hour incubation. As for the experimental part: Compounds of the present invention were evaluated for potency against PI3-K using a cellular assay as follows.
Healthy growing human breast cancer cells BT20 (PI3K mutated) are used for the assay. BT20 cells are grown in 10% FBS+GLN (1:100)+PS (1:100)+1 mM Sodium Pyruvate+0.1 mM Sodium Bicarbonate+Non-Essential Amino Acids Solution (1:100) MEM medium (MEM+all). […] The cells are re-suspended in 10% FBS MEM all and are centrifuged down at 1400 rpm for 5 minutes. The cells are re-suspended in 0.5% FBS MEM all and are counted on a cell counter. The cells are seeded at 25,000 cells/well in volume of 100 μL/well in 0.5% FBS MEM all in a 96 well flat-bottom plate. The negative control wells receive only 100 μL of 0.5% FBS MEM all medium without cells. The plate is incubated overnight in a cell culture incubator with 5% CO2 at 37° C.
On day 2, testing compounds are prepared in 0.5% FBS MEM all medium and serially diluted at 1:3 for 11 test concentrations. Each concentration of the compounds is tested in duplicate. The compound solutions are added at 25 μL/well to the corresponded wells in cell plate, and 25 μL/well of the vehicle (0.5% DMSO in 0.5% FBS MEM all) is added to the negative control wells (no cells) and the positive control wells (cells without compounds). The plate is incubated for 1 hour in a cell culture incubator with 5% CO2 at 37° C. After 1 hour of incubation, the medium is removed, 100 μL/well of cell lysis buffer is added into the cell plate, and shake for 15 minutes at room temperature. […] After 1 hour, empty the contents of the wells, wash the plate 4 times with the wash buffer, and add 100 μL of TMB substrate solution (catalog #T0440, Sigma) into each well, and incubate with gentle shaking at room temperature for […]. After 15 minutes of color development, add 100 μL of stop solution (1N hydrochloric acid) to each well, and read the plate at 450 nm on ELISA plate reader.
Molecule `Cc1nc(N)nc2c1cc(-c1cn[nH]c1)c(=O)n2CC1CCOC1` (stereo not drawn) [Compound 219, 2-amino-4-methyl-6-(1H-pyrazol-4-yl)-8-((tetrahydrofuran-3-yl)methyl)pyrido[2,3-d]pyrimidin-7(8H)-one] showed a half-inhibitory concentration (IC50) of 0.0949 µM.

Regarding `COc1ccc(-c2cc3c(C)nc(N)nc3n(CC3CCOC3)c2=O)cn1` (stereo not drawn) [Compound 220, 2-amino-6-(6-methoxypyridin-3-yl)-4-methyl-8-((tetrahydrofuran-3-yl)methyl)pyrido[2,3-d]pyrimidin-7(8H)-one], the half-maximal inhibitory concentration (IC50) turned out to be 0.145 µM. Against the preceding molecule, the IC50 is about 1.5-fold higher. For the molecule `Cc1nc(N)nc2c1cc(-c1cn[nH]c1)c(=O)n2CC1CCCO1` (stereo not drawn) [Compound 223, 2-amino-4-methyl-6-(1H-pyrazol-4-yl)-8-((tetrahydrofuran-2-yl)methyl)pyrido[2,3-d]pyrimidin-7(8H)-one], the IC50 stood at 0.249 µM. This IC50 lies about 1.7-fold higher than the previous one.

As for `Cc1nc(N)nc2c1cc(-c1cnn(C)c1)c(=O)n2C1CCCC1` [Compound 235, 2-Amino-8-cyclopentyl-4-methyl-6-(1-methyl-1H-pyrazol-yl)-8H-pyrido[2,3-d]pyrimidin-7-one], half-maximal inhibition (IC50) was put at 0.623 µM. As to `CNc1nc(C)c2cc(-c3ccc(OC)nc3)c(=O)n(CCN)c2n1` [Compound 239, 8-(2-Amino-ethyl)-6-(6-methoxy-pyridin-3-yl)-4-methyl-2-methylamino-8H-pyrido[2,3-d]pyrimidin-7-one], the half-maximal inhibitory concentration (IC50) is 1.27 µM. The molecule `COc1ccc(-c2cc3c(C)nc(N)nc3n(CC(C)C)c2=O)cn1` [Compound 241, 2-Amino-8-isobutyl-6-(6-methoxy-pyridin-3-yl)-4-methyl-8H-pyrido[2,3-d]pyrimidin-7-one] showed an IC50 of 0.0793 µM. `COc1ncc(-c2cc3c(C)nc(N)nc3n(C3CCCC3)c2=O)cc1F` [Compound 254, 2-amino-8-cyclopentyl-6-(5-fluoro-6-methoxypyridin-3-yl)-4-methylpyrido[23-d]pyrimidin-7(8H)-one] displayed an IC50 of 0.00792 µM. For the molecule `Cc1nc(N)nc2c1cc(-c1ccc3c(c1)OCCO3)c(=O)n2[C@H]1CC[C@H](O)CC1` [Compound 261, 2-amino-6-(2,3-dihydro-1,4-benzodioxin-6-yl)-8-(trans-4-hydroxycylohexyl)-4-methylpyrido[23-d]pyrimidin-7(8H)-one], the IC50 turned out to be 0.0348 µM.

In the case of `COc1ncc(-c2cc3c(C)nc(N)nc3n([C@H]3CC[C@@H](O)CC3)c2=O)cn1` [Compound 272, 2-amino-8-(cis-4-hydroxycyclohexyl)-6-(2-methoxypyrimidin-5-yl)-4-methylpyrido[2,3-d]pyrimidin-7(8H)-one], the IC50 was 0.0437 µM. In the case of `COc1ncc(-c2cc3c(C)nc(N)nc3n([C@H]3CC[C@H](O)CC3)c2=O)cn1` [Compound 273, 2-amino-8-(trans-4-hydroxycyclohexyl)-6-(2-methoxypyrimidin-5-yl)-4-methylpyrido[2,3-d]pyrimidin-7(8H)-one] it was 0.0251 µM; in that of `CNc1nc(C)c2cc(-c3ccc(OC)nc3)c(=O)n([C@H]3CC[C@H](O)CC3)c2n1` [Compound 274, 8-(trans-4-hydroxycyclohexyl)-6-(6-methoxypyridin-3-yl)-4-methyl-2-(methylamino)pyrido[2,3-d]pyrimidin-7(8H)-one], 0.00781 µM; in that of `CNc1nc(C)c2cc(C(=O)Nc3ccccn3)c(=O)n(C3CCCC3)c2n1` [Compound 282, 8-cyclopentyl-4-methyl-2-(methylamino)-7-oxo-N-pyridin-2-yl-7,8-dihydropyrido[2,3-d]pyrimidine-6-carboxamide], 0.265 µM. Regarding `COc1ccc(-c2cc3c(C)nc(N)nc3n([C@H]3CC[C@@H](OCCO)CC3)c2=O)cn1` [Compound 285, 2-Amino-8-(cis-4-(2-hydroxyethoxy)cyclohexyl)-6-(6-methoxypyridin-3-yl)-4-methylpyrido[2,3-d]pyrimidin-7(8H)-one], the half-maximal inhibitory concentration (IC50) worked out at 0.018 µM. Molecule `COc1ccc(-c2cc3c(C)nc(N)nc3n([C@H]3CC[C@H](OCCO)CC3)c2=O)cn1` [Compound 286, 2-amino-8-[trans-4-(2-hydroxyethoxy)cyclohexyl]-6-(6-methoxypyridin-3-yl)-4-methylpyrido[2,3-d]pyrimidin-7(8H)-one] yielded an IC50 of 0.0131 µM. Molecule `Cc1nc(N)nc2c1cc(-c1cnc3ccccc3c1)c(=O)n2[C@H]1CC[C@H](OCCO)CC1` [Compound 289, 2-amino-8-(trans-4-(2-hydroxyethoxy)cyclohexyl]-4-methyl-6-quinolin-3-ylpyrido[2,3-d]pyrimidin-7(8H)-one] showed an IC50 of 0.0295 µM. Regarding `Cc1nc(N)nc2c1cc(-c1cnc3ccccc3c1)c(=O)n2[C@H]1CC[C@@H](OCCO)CC1` [Compound 295, 2-amino-8-[cis-4-(2-hydroxyethoxy)cyclohexyl]-4-methyl-6-quinolin-3-ylpyrido[2,3-d]pyrimidin-7(8H)-one], the IC50 worked out at 0.0962 µM. `Cc1nc(N)nc2c1cc(-c1ccn[nH]1)c(=O)n2[C@H]1CC[C@H](OCCO)CC1` [Compound 301, 2-amino-8-[trans-4-(2-hydroxyethoxy)cyclohexyl]-4-methyl-6-(1H-pyrazol-3-yl)pyrido[2,3-d]pyrimidin-7(8H)-one] yielded a concentration for half-maximal inhibition (IC50) of 0.137 µM. `COc1ccc(-c2cc3c(C)nc(N)nc3n([C@H]3CC[C@@H](OCC(N)=O)CC3)c2=O)cn1` [Compound 303] showed a half-inhibitory concentration (IC50) of 0.0205 µM. Take `COc1ncc(-c2cc3c(C)nc(N)nc3n([C@H]3CC[C@@H](OCC(N)=O)CC3)c2=O)cn1` [Compound 307, 2-({cis-4-(2-amino-6-(2-methoxypyrimidin-5-yl)-4-methyl-7-oxopyrido[2,3-d]pyrimidin-8(7H)-yl]cyclohexyl}oxy)acetamide]: the IC50 is 0.0829 µM. Molecule `COc1ccc(-c2cc3c(C)nc(N)nc3n([C@H]3CC[C@H](OCC(N)=O)CC3)c2=O)cn1` [Compound 309, 2-({trans-4-[2-amino-6-(6-methoxypyridin-3-yl)-4-methyl-7-oxopyrido[2,3-d]pyrimidin-8(7H)-yl]cyclohexyl}oxy)acetamide] showed an IC50 of 0.0193 µM.

`COc1ncc(-c2cc3c(C)nc(N)nc3n([C@H]3CC[C@H](OCC(N)=O)CC3)c2=O)cn1` [Compound 311, 2-({trans-4-[2-amino-6-(2-methoxypyrimidin-5-yl)-4-methyl-7-oxopyrido[2,3-d]pyrimidin-8(7H)-yl]cyclohexyl}oxy)acetamide] yielded an IC50 of 0.0519 µM. This IC50 lies about 2.7-fold higher than the previous one.

Usually IC50 stands for the concentration at which inhibition is half-maximal. Lower therefore signals greater potency.
